Reference: patent publication US11352338B2, “Substituted isoindolinones” (BioTheryX, Inc., priority 2018, dated 2022)

How the values were obtained:
IL-2 = IL-2 inhibition assay, anti-CD3 (OKT3) stimulated PBMCs, Mesoscale IL-2 analysis; assay type: cell-based, human; settings: Homo sapiens, PBMC, PBMCs on anti-CD3, 24 h, fold difference from DMSO control, read-out: IL-2, % Induction compared to DMSO
Method: For the IL-2 analysis, 96 well plates were precoated with 1 μg/mL anti-human CD3 antibody (OKT3, eBioscience Inc., San Diego, Calif.). After washing with PBS, the indicated compound was added (50 μL/well) followed by PBMCs diluted at 3-4 million cells/mL (150 μL/well). Plates were incubated for 24 h and the supernatants collected for Mesoscale IL-2 analysis. IL-2 activity is measured as fold difference from the DMSO control. […]
In Table 4, the fold-change values are reported as “A”, “B”, “C”, or “D”. “A” represents a fold-change value of equal to or less than 0.5 (value≤0.5); “B” represents a fold-change value of more than 0.5 and equal to or less than 1 (0.5<value≤1); “C” represents a fold-change value of more than 1 and less than 1.5 (1<value<1.5); and “D” represents a fold-change value of equal to or more than 1.5 (value≥1.5).

IL-6 = IL-6 inhibition, LPS-induced PBMCs or CD14+ monocytes, Meso Scale assay; assay type: cell-based; settings: LPS 100 ng/mL 18-24 h, read-out: % Inhibition compared to DMSO, IL-6; for inhibition at 1 µM: tested at 1 μM; for inhibition at 10 µM: tested at 10 μM
Method: (§1) Either frozen primary blood mononuclear cells (PBMCs) or frozen CD14+ mobilized peripheral blood monocytes were purchased from AllCells (PB003F, Normal Peripheral Blood MNC (Alameda, Calif.)). Cells were quick thawed, washed 1-time with RPMI-1640 (10% FBS/1% Pen-Strep) and plated in 96 well plates at 200,000 cells per well. Cells were pretreated with DMSO only or with the indicated compound for 1 h and then induced with 100 ng/mL lipopolysaccharide (LPS) for 18-24 h. The supernatant was analyzed for IL-1β, IL-6, and TNFα, using Meso Scale assay according to manufacturer's protocol. The negative control wells were treated with DMSO.
(§2) IL-1β, IL-6 and TNFα activities were tested at two different concentrations (1 μM and 10 μM) and the results are shown in Tables 2 and 3 respectively.

CK1α = target: T1, CK1α (Homo sapiens, UniProt P48729+Q96SW2); assay: Western blot, degradation of cellular CK1α in MV-4-11 cells; assay type: cell-based; settings: MV4-11, tested at 1 μM, 6-8 hours, read-out: % Degradation compared to DMSO, CK1α
T1 construct: endogenous in cells; host or cells: MV-4-11
Method: (§3) MV-4-11 cells were grown in RPMI 1640 media supplemented with 10% fetal bovine serum, streptomycin and penicillin.
(§4) Cells were cultured at approximately 10^6 cells per mL and incubated in DMSO or the indicated compounds for 6-8 hours. Whole cell extracts were prepared using RIPA lysis buffer according to manufacturer's protocol (Pierce). Briefly, 4×10^6 cells were washed once in PBS, the cell pellets were resuspended in RIPA lysis buffer and allowed to incubate for 15 minutes on ice. Cells debris was removed by centrifugation and the cleared whole cell lysates were transferred to new tubes for further analysis.
(§5) For Western blot analysis, whole cell protein extracts were separated on 4-12% SDS-polyacrylamide gels, transferred to nitrocellulose and probed with the indicated primary antibodies. Membranes were subsequently washed and probed with the appropriate IRDye secondary antibodies (LI-COR). The signal was detected using the Odyssey Imaging System (LI-COR).
(§6) The following antibodies were used in these studies: Anti-PDE6D antibody: Santa Cruz Biotechnology, sc-166854 (Dallas, Tex.); Anti-Ikaros: Abcam, ab191394 (Cambridge, Mass.); anti-CK1α antibody: Abcam, ab108296 (Cambridge, Mass.); β-Actin (8H10D10) mouse monoclonal antibody: Cell Signaling Technology, #3700 (Danvers, Mass.); IRDye 680RD Goat anti-rabbit antibody: LI-COR, 926-68071 (Lincoln, Nebr.); and IRDye 800CW Goat anti-mouse antibody: LI-COR, 926-32210 (Lincoln, Nebr.).
(§7) The % degradation values are reported as “A”, “B”, “C”, or “D.” “A” represents a % degradation value of less than 25% (value<25%); “B” represents a % degradation value of equal to or more than 25% and less than 50% (25%≤value<50%); “C” represents a % degradation value of equal to or more than 50% and less than 75% (50%≤value<75%); and “D” represents a % degradation value of equal to or more than 75% (value≥75%). […] was used as control.

Ikaros = target: T2, Ikaros (Homo sapiens, UniProt Q13422+Q96SW2); assay: Western blot, degradation of cellular Ikaros in MV-4-11 cells; assay type: cell-based; settings: MV4-11, tested at 1 μM, 6-8 hours, read-out: % Degradation compared to DMSO, Ikaros
T2 construct: endogenous in cells; host or cells: MV-4-11
Method: as §3, §4, §5, §6, §7

TNFα = TNFα inhibition, LPS-induced PBMCs or CD14+ monocytes, Meso Scale assay; assay type: cell-based; settings: LPS 100 ng/mL 18-24 h, read-out: % Inhibition compared to DMSO, TNFα; for inhibition at 1 µM: tested at 1 μM; for inhibition at 10 µM: tested at 10 μM
Method: as §1, §2

PDE6D = target: T3, PDE6D (Homo sapiens, UniProt O43924+Q96SW2); assay: Western blot, degradation of cellular PDE6D in MV-4-11 cells; assay type: cell-based; settings: MV4-11; tested at 1 μM, MV-4-11 cells, 6-8 hours; read-out: % Degradation compared to DMSO, PDE6D
T3 construct: endogenous in cells; host or cells: MV-4-11
Method: as §3, §4, §5, §6, §7

IL-1β = IL-1β inhibition, LPS-induced PBMCs or CD14+ monocytes, Meso Scale assay; assay type: cell-based; settings: LPS 100 ng/mL 18-24 h, read-out: % Inhibition compared to DMSO, IL-1β; for inhibition at 1 µM: tested at 1 μM; for inhibition at 10 µM: tested at 10 μM
Method: as §1, §2

T2 sequence (Q13422 whole entry): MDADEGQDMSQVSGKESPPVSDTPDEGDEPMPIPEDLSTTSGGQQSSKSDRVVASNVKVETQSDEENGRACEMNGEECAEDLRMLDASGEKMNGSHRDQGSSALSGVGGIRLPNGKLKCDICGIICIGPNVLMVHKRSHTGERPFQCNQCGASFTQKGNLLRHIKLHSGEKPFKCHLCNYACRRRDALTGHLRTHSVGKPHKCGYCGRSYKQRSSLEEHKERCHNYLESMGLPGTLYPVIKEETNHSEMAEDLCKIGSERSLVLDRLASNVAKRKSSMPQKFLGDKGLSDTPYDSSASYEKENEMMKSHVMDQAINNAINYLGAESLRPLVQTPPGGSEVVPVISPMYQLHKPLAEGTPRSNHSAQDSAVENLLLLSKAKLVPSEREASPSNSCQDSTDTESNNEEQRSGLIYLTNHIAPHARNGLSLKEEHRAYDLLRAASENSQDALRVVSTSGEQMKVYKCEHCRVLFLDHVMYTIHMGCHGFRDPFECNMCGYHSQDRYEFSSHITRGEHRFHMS
T2 sequence (Q96SW2 whole entry): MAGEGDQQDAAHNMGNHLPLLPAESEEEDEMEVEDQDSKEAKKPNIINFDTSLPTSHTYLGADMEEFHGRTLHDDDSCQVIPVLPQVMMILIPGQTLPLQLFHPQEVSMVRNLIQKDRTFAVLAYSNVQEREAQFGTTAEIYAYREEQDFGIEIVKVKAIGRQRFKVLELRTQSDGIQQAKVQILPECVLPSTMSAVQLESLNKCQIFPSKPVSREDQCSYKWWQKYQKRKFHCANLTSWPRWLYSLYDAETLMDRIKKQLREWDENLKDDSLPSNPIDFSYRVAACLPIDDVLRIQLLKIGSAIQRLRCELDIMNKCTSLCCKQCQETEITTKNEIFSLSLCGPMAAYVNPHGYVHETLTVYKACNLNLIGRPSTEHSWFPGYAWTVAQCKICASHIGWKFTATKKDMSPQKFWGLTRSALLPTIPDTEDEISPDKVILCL
T2 sequence (Q16531 whole entry partner): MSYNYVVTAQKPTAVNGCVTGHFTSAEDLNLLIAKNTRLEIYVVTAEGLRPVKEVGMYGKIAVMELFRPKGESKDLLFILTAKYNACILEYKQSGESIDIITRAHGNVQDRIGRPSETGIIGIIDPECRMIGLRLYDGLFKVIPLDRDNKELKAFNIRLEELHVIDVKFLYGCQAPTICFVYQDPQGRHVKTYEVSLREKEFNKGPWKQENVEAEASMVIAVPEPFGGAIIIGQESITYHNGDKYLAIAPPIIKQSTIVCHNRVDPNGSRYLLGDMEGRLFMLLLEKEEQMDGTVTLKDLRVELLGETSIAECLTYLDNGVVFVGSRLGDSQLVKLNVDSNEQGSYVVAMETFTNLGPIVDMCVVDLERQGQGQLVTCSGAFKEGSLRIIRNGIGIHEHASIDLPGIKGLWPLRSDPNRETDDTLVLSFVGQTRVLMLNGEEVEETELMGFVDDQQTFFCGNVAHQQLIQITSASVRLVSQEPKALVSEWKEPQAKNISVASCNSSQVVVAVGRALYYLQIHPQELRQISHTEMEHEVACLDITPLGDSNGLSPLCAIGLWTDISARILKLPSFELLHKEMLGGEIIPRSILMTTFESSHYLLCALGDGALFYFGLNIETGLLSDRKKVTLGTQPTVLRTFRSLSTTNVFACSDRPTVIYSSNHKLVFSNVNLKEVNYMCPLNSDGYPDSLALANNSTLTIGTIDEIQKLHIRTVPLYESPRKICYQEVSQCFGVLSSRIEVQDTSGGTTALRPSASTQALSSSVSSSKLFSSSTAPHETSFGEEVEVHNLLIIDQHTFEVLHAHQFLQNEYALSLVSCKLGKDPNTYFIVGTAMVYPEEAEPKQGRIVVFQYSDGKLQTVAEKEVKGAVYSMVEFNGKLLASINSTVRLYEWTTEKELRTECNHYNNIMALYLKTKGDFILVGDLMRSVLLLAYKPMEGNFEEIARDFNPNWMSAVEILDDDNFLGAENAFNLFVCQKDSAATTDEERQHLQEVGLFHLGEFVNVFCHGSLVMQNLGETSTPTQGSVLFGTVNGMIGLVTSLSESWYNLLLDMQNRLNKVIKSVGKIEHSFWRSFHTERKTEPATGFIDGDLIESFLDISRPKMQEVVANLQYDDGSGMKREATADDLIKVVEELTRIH
T3 sequence (O43924 whole entry): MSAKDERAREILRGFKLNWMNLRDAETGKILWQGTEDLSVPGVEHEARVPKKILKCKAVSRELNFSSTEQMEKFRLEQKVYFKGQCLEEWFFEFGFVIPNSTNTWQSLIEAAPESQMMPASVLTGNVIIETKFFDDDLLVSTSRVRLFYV
T3 sequence (Q96SW2 whole entry): as the sequence (Q96SW2 whole entry) above
T3 sequence (Q16531 whole entry partner): as the sequence (Q16531 whole entry partner) above
T1 sequence (P48729 whole entry): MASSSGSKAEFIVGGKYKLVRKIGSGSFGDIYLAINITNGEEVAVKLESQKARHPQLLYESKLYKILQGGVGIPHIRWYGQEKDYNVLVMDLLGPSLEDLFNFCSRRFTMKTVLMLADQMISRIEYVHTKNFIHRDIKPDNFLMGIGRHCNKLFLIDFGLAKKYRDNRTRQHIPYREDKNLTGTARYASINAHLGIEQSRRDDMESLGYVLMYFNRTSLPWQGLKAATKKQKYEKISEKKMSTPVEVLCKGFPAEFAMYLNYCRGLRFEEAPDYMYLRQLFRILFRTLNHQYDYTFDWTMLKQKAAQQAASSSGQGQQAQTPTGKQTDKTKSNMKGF
T1 sequence (Q96SW2 whole entry): as the sequence (Q96SW2 whole entry) above
T1 sequence (Q16531 whole entry partner): as the sequence (Q16531 whole entry partner) above

| Compound | fold induction at 1 µM (IL-2) | fold induction at 10 µM (IL-2) | inhibition at 1 µM (IL-6) [%] | inhibition at 10 µM (IL-6) [%] | Dmax at 1 µM (CK1α) [%] | Dmax at 1 µM (Ikaros) [%] | inhibition at 1 µM (TNFα) [%] | inhibition at 10 µM (TNFα) [%] | Dmax at 1 µM (PDE6D) [%] | inhibition at 1 µM (IL-1β) [%] | inhibition at 10 µM (IL-1β) [%] |
| --- | --- | --- | --- | --- | --- | --- | --- | --- | --- | --- | --- |
| O=C1CCC(N2C(=O)c3cc(F)cc(C4CCCC4)c3C2=O)C(=O)N1 (stereo not shown) [Compound 12] | 0.5 to 1 | 0.5 to 1 | < 10 | < 10 | < 25 | < 25 | 10 to 25 | 25 to 50 | ≥ 75 | < 10 | < 10 |
| O=C1CCC(N2Cc3c(cccc3C3CC3)C2=O)C(=O)N1 (stereo not shown) [Compound 13] | ≥ 1.5 | ≥ 1.5 | < 10 | < 10 | 50 to 75 | 50 to 75 | > 50 | > 50 | 50 to 75 | 25 to 50 | 25 to 50 |
| O=C1CCC(N2Cc3c(ccc(F)c3C3CCCC3)C2=O)C(=O)N1 (stereo not shown) [Compound 24] | 1 to 1.5 | 1 to 1.5 | < 10 | < 10 | < 25 | < 25 | 10 to 25 | < 10 | 25 to 50 | < 10 | < 10 |
| CC1CC(=O)NC(=O)C1N1Cc2c(cc(F)cc2C2CCCC2)C1=O (stereo not shown) [Compound 6, 3-(4-cyclopentyl-6-fluoro-1-oxoisoindolin-2-yl)-4-methylpiperidine-2,6-dione] | 0.5 to 1 | ≤ 0.5 | < 10 | < 10 | 25 to 50 | < 25 | 10 to 25 | > 50 | ≥ 75 | < 10 | 10 to 25 |
| O=C1CCC(N2Cc3c(cc(F)cc3C3=CCC(F)(F)CC3)C2=O)C(=O)N1 (stereo not shown) [Compound 9] | 0.5 to 1 | 0.5 to 1 | 10 to 25 | 10 to 25 | < 25 | < 25 | < 10 | 25 to 50 | ≥ 75 | < 10 | < 10 |
| CC1(C)CCC(c2cc(F)cc3c2CN(C2CCC(=O)NC2=O)C3=O)CC1 (stereo not shown) [Compound 7] | 1 to 1.5 | 0.5 to 1 | 10 to 25 | < 10 | < 25 | < 25 | < 10 | 10 to 25 | ≥ 75 | < 10 | < 10 |
| O=C1CCC(N2Cc3c(cc(Cl)cc3C3CCCC3)C2=O)C(=O)N1 (stereo not shown) [Compound 28] | 1 to 1.5 | 0.5 to 1 | < 10 | 10 to 25 | < 25 | < 25 | 10 to 25 | 10 to 25 | < 25 | < 10 | < 10 |
| O=C1CCC(N2Cc3c(cc(F)cc3C3CCCCCC3)C2=O)C(=O)N1 (stereo not shown) [Compound 15] | 0.5 to 1 | ≤ 0.5 | < 10 | < 10 | 50 to 75 | 25 to 50 | < 10 | < 10 | ≥ 75 | < 10 | < 10 |
| O=C1CCC(N2C(=O)c3cccc(C4CCCC4)c3C2=O)C(=O)N1 (stereo not shown) [Compound 10, 4-cyclopentyl-2-(2,6-dioxopiperidin-3-yl)isoindoline-1,3-dione] | 1 to 1.5 | 0.5 to 1 | < 10 | 10 to 25 | < 25 | 25 to 50 | 10 to 25 | > 50 | 50 to 75 | < 10 | 10 to 25 |
| C[C@@H](c1cccc2c1CN(C1CCC(=O)NC1=O)C2=O)C(F)(F)F (stereo partly shown) [Compound 30] | 1 to 1.5 | 0.5 to 1 | < 10 | < 10 | < 25 | 25 to 50 | < 10 | 10 to 25 | < 25 | < 10 | < 10 |
| C[C@H](c1cccc2c1CN(C1CCC(=O)NC1=O)C2=O)C(F)(F)F (stereo partly shown) [Compound 31] | 0.5 to 1 | 0.5 to 1 | < 10 | < 10 | 25 to 50 | 50 to 75 | < 10 | 10 to 25 | < 25 | < 10 | < 10 |
| O=C1CCC(N2Cc3c(cc(F)cc3C3CC3)C2=O)C(=O)N1 (stereo not shown) [Compound 5] | ≤ 0.5 | ≤ 0.5 | < 10 | < 10 | ≥ 75 | 25 to 50 | 25 to 50 | > 50 | ≥ 75 | 25 to 50 | > 50 |
| O=C1CCC(N2Cc3c(cc(F)cc3C3CCCCC3)C2=O)C(=O)N1 (stereo not shown) [Compound 3] | ≤ 0.5 | ≤ 0.5 | < 10 | < 10 | 50 to 75 | 25 to 50 | < 10 | < 10 | ≥ 75 | < 10 | < 10 |
| COc1cc2c(c(C3CCCC3)c1)CN(C1CCC(=O)NC1=O)C2=O (stereo not shown) [Compound 14] | 0.5 to 1 | 0.5 to 1 | < 10 | < 10 | 25 to 50 | 50 to 75 | 10 to 25 | 25 to 50 | 25 to 50 | < 10 | 10 to 25 |
